Assay results: publication PMC9653409, “Generative deep learning enables the discovery of a potent and selective RIPK1 inhibitor” (Nature Communications, 2022)
Read-outs that look alike come from different tables or passages of the source.

How the values were obtained:
Assay in all cases: Kinase inhibitory activity profiling of RI-962@10 µM (406 kinases, Eurofins)
Assay type in all cases: biochemical
[1] = biological target: panel of human kinases (kinase named in endpoint) (Homo sapiens, UniProt P21802, N549H); conditions: 10 µM; read-out: Activity (%), FGFR2(N549H)(h)
Method in brief: (§1)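 Radiometric filter-binding kinase assays: enzyme preincubated 15 min with compound in 8 mM MOPS pH 7.0, 0.2 mM EDTA, 250 μM peptide substrate, 10 mM magnesium acetate, 10 μM [γ-33P]-ATP. Reaction started with Mg/ATP, run 40 min at room temperature, stopped with phosphoric acid; 33P incorporation read by scintillation counting. Other kinases by similar protocols.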

[2] = biological target: panel of human kinases (kinase named in endpoint) (Homo sapiens, UniProt Q00532); conditions: 10 µM; read-out: Activity (%), CDKL1(h)
Method in brief: as §1

[3] = biological target: panel of human kinases (kinase named in endpoint) (Homo sapiens, UniProt Q9H0K1); conditions: 10 µM; read-out: Activity (%), SIK2(h)
panel of human kinases (kinase named in endpoint) (Homo sapiens, UniProt Q9H0K1), sequence (Q9H0K1 whole entry): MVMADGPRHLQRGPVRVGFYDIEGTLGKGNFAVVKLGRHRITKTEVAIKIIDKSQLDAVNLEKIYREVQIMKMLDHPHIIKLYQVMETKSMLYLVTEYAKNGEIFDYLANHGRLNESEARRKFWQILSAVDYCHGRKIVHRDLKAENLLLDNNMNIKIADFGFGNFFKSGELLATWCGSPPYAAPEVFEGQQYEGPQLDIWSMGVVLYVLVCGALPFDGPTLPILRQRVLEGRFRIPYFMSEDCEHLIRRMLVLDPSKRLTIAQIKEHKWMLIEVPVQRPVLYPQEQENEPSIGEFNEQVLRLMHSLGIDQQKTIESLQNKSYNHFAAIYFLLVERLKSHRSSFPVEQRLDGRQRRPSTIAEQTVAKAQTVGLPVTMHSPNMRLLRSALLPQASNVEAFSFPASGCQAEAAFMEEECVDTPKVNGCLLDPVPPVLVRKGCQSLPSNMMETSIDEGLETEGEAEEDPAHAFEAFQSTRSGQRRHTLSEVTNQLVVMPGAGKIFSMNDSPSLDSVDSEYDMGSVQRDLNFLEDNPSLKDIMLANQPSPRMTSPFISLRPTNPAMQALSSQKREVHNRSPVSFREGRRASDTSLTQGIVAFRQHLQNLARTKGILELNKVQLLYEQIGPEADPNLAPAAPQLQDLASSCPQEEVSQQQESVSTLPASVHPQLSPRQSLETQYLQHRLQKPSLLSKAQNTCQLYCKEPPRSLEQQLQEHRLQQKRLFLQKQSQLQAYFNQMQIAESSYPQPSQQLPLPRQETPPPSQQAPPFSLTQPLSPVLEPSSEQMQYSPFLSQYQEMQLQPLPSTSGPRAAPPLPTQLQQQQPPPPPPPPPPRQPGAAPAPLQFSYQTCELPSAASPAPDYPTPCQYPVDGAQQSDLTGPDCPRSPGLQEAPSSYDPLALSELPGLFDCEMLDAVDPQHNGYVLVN
Method in brief: as §1

[4] = biological target: panel of human kinases (kinase named in endpoint) (Homo sapiens, UniProt Q02750); conditions: 10 µM; read-out: Activity (%), MEK1(h)
Method in brief: as §1

[5] = biological target: panel of human kinases (kinase named in endpoint) (Homo sapiens, UniProt P37023); conditions: 10 µM; read-out: Activity (%), ALK1(h)
Method in brief: as §1

[6] = biological target: panel of human kinases (kinase named in endpoint) (Homo sapiens, UniProt Q14164); conditions: 10 µM; read-out: Activity (%), IKKε(h)
Method in brief: as §1

[7] = biological target: panel of human kinases (kinase named in endpoint) (Homo sapiens, UniProt O94806); conditions: 10 µM; read-out: Activity (%), PKD3(h)
panel of human kinases (kinase named in endpoint) (Homo sapiens, UniProt O94806), sequence (O94806 whole entry): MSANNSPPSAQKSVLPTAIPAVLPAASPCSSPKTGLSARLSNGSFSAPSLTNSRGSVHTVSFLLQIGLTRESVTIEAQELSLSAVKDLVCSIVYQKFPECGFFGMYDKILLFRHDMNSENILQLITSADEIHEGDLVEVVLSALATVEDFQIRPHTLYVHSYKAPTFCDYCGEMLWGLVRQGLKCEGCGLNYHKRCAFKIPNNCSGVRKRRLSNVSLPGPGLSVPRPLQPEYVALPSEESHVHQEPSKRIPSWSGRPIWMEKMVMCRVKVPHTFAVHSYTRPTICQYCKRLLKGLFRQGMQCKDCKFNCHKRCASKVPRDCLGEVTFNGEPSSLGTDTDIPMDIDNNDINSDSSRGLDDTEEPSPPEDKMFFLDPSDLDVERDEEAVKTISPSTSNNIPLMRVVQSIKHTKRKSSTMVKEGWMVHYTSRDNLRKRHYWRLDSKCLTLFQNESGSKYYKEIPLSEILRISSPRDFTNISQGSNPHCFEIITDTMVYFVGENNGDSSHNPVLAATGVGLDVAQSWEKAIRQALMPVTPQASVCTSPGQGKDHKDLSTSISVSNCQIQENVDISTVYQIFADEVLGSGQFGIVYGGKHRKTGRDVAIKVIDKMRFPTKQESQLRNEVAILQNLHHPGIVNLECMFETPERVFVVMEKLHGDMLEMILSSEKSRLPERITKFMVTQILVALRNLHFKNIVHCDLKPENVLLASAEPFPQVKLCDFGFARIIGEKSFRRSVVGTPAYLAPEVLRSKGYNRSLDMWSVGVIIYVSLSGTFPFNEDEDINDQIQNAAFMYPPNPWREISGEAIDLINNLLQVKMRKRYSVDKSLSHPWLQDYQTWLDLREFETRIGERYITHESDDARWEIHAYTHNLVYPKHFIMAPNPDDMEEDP
Method in brief: as §1

[8] = biological target: panel of human kinases (kinase named in endpoint) (Homo sapiens, UniProt Q86Z02); conditions: 10 µM; read-out: Activity (%), HIPK1(h)
Method in brief: as §1

[9] = biological target: panel of human kinases (kinase named in endpoint) (Homo sapiens, UniProt O43318); conditions: 10 µM; read-out: Activity (%), TAK1(h)
Method in brief: as §1

[10] = biological target: panel of human kinases (kinase named in endpoint) (Homo sapiens, UniProt Q15759); conditions: 10 µM; read-out: Activity (%), SAPK2b(h)
Method in brief: as §1

[11] = biological target: panel of human kinases (kinase named in endpoint) (Homo sapiens, UniProt P48426); conditions: 10 µM; read-out: Activity (%), PIP4K2a(h)
panel of human kinases (kinase named in endpoint) (Homo sapiens, UniProt P48426), sequence (P48426 whole entry): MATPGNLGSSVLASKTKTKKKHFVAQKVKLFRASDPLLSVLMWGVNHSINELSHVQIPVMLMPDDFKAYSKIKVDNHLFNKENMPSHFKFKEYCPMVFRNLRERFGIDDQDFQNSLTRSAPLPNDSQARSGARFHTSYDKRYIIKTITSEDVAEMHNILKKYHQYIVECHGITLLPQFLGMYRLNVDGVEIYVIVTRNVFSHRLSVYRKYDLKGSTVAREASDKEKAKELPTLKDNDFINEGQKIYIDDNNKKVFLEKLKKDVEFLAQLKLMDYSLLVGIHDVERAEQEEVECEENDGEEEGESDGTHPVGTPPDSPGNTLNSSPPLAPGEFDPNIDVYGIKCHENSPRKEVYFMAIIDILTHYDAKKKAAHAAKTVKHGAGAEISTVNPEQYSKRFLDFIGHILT
Method in brief: as §1

[12] = biological target: panel of human kinases (kinase named in endpoint) (Homo sapiens, UniProt P17948); conditions: 10 µM; read-out: Activity (%), Flt1(h)
Method in brief: as §1

[13] = biological target: panel of human kinases (kinase named in endpoint) (Homo sapiens, UniProt Q16566); conditions: 10 µM; read-out: Activity (%), CaMKIV(h)
Method in brief: as §1

[14] = biological target: panel of human kinases (kinase named in endpoint) (Homo sapiens, UniProt Q04771); conditions: 10 µM; read-out: Activity (%), ALK2(h)
Method in brief: as §1

[15] = biological target: panel of human kinases (kinase named in endpoint) (Homo sapiens, UniProt Q9BYP7); conditions: 10 µM; read-out: Activity (%), WNK3(h)
Method in brief: as §1

[16] = biological target: panel of human kinases (kinase named in endpoint) (Homo sapiens, UniProt Q13535); conditions: 10 µM; read-out: Activity (%), ATR/ATRIP(h)
Method in brief: as §1

[17] = biological target: panel of human kinases (kinase named in endpoint) (Homo sapiens, UniProt P04629); conditions: 10 µM; read-out: Activity (%), TrkA(h)
Method in brief: as §1

[18] = biological target: panel of human kinases (kinase named in endpoint) (Homo sapiens, UniProt P52333); conditions: 10 µM; read-out: Activity (%), JAK3(h)
Method in brief: as §1

[19] = biological target: panel of human kinases (kinase named in endpoint) (Homo sapiens, UniProt P16234, V561D); conditions: 10 µM; read-out: Activity (%), PDGFRα(V561D)(h)
Method in brief: as §1

[20] = biological target: panel of human kinases (kinase named in endpoint) (Homo sapiens, UniProt Q09013); conditions: 10 µM; read-out: Activity (%), DMPK(h)
Method in brief: as §1

[21] = biological target: panel of human kinases (kinase named in endpoint) (Homo sapiens, UniProt P42336); conditions: 10 µM
panel of human kinases (kinase named in endpoint) (Homo sapiens, UniProt P42336), sequence (P42336 whole entry): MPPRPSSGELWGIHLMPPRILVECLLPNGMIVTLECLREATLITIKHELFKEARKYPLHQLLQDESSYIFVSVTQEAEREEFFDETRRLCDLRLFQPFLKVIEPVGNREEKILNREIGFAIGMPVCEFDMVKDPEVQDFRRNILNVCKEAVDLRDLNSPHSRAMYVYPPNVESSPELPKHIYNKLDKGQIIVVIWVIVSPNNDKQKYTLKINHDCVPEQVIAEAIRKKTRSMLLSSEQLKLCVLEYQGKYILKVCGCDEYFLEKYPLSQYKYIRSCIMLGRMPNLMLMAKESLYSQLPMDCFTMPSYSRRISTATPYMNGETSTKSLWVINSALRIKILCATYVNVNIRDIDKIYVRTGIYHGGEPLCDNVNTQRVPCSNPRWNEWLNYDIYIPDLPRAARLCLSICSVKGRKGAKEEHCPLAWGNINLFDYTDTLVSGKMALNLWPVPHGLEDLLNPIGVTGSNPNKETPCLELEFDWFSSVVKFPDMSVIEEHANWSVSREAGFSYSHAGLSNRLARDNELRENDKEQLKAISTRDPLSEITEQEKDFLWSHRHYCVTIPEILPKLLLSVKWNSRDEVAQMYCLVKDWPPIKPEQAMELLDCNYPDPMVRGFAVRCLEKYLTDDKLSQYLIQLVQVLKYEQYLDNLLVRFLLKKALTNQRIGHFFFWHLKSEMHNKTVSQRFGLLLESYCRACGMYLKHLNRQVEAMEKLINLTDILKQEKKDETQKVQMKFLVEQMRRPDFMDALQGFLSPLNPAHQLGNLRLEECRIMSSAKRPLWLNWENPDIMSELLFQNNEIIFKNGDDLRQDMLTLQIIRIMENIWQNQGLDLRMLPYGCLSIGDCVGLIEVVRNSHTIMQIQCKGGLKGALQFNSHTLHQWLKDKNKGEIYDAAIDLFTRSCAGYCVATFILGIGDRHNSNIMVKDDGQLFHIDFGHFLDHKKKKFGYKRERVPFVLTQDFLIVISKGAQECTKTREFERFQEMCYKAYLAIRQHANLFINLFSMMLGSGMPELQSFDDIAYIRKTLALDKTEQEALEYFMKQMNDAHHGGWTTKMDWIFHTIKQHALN
Method in brief: as §1

[22] = biological target: panel of human kinases (kinase named in endpoint) (Homo sapiens, UniProt Q9NYV4); conditions: 10 µM; read-out: Activity (%), CDK12/cyclinK(h)
panel of human kinases (kinase named in endpoint) (Homo sapiens, UniProt Q9NYV4), sequence (Q9NYV4 whole entry): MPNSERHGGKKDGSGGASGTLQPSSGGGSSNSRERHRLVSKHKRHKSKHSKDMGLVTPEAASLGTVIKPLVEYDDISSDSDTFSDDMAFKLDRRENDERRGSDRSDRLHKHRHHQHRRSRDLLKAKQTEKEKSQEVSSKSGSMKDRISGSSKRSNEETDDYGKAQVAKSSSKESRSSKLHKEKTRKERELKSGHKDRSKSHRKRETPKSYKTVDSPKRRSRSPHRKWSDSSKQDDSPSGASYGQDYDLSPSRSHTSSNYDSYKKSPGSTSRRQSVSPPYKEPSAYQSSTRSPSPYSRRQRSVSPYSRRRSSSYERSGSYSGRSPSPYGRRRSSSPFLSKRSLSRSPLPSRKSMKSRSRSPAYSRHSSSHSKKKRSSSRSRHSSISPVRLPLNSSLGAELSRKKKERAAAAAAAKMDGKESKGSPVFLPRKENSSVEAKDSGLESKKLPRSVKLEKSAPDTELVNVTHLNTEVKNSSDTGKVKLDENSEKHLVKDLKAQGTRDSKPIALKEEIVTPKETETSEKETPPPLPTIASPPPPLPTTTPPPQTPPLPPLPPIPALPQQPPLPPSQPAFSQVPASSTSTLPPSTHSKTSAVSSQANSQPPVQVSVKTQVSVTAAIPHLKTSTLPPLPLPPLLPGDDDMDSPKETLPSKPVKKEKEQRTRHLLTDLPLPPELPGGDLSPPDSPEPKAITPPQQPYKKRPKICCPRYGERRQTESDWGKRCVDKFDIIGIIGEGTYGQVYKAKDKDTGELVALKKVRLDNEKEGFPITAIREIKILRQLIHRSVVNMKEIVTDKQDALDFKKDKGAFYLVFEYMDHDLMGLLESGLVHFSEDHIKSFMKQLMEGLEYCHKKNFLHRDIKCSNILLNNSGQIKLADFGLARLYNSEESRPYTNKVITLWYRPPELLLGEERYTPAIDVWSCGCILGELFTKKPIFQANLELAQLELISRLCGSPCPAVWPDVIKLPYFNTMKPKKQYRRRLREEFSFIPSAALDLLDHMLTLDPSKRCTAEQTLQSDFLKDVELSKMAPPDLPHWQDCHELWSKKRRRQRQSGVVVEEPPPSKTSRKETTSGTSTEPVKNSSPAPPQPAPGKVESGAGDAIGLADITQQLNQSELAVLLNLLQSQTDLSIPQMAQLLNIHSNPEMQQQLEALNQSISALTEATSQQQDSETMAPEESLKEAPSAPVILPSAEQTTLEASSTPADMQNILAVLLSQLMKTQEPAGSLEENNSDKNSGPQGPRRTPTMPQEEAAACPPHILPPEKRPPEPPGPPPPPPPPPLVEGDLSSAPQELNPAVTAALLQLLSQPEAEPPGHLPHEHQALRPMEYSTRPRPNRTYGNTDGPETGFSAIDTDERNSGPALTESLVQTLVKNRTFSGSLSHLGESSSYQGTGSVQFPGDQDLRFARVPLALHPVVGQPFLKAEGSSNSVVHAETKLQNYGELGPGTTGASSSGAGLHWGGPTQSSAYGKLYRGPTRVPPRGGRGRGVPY
Method in brief: as §1

[23] = biological target: panel of human kinases (kinase named in endpoint) (Homo sapiens, UniProt Q8IZX4); conditions: 10 µM; read-out: Activity (%), TAF1L(h)
Method in brief: as §1

[24] = biological target: panel of human kinases (kinase named in endpoint) (Homo sapiens, UniProt Q9Y5S2); conditions: 10 µM; read-out: Activity (%), MRCKβ(h)
Method in brief: as §1

[25] = biological target: panel of human kinases (kinase named in endpoint) (Homo sapiens, UniProt O14920); conditions: 10 µM; read-out: Activity (%), IKKβ(h)
Method in brief: as §1

**Q.** For CC(C)C(=O)Nc1nc2cc(-c3ccc4c(c3)c(C(=O)NC(C)c3ccccc3)cn4C)ccn2n1 (centres unmarked) [RI-962], which activity at 10 µM [1] is on record?
**A.** 100%

**Q.** What about the activity at 10 µM [2] of the same compound?
**A.** 98%

**Q.** And the activity at 10 µM [3]?
**A.** 101%

**Q.** What about the activity at 10 µM [4] of the same compound?
**A.** 105%

**Q.** And the activity at 10 µM [5]?
**A.** 94%

**Q.** And the activity at 10 µM [6]?
**A.** 103%

**Q.** And the activity at 10 µM [7]?
**A.** 104%

**Q.** What about the activity at 10 µM [8] of the same compound?
**A.** 103%

**Q.** What about the activity at 10 µM [9] of the same compound?
**A.** 90%

**Q.** What about the activity at 10 µM [10] of the same compound?
**A.** 84%

**Q.** What about the activity at 10 µM [11] of the same compound?
**A.** 98%

**Q.** What about the activity at 10 µM [12] of the same compound?
**A.** 85%

**Q.** What about the activity at 10 µM [13] of the same compound?
**A.** 77%

**Q.** And the activity at 10 µM [14]?
**A.** 104%

**Q.** And the activity at 10 µM [15]?
**A.** 75%

**Q.** What about the activity at 10 µM [16] of the same compound?
**A.** 108%

**Q.** What about the activity at 10 µM [17] of the same compound?
**A.** 64%

**Q.** And the activity at 10 µM [18]?
**A.** 95%

**Q.** What about the activity at 10 µM [19] of the same compound?
**A.** 102%

**Q.** And the activity at 10 µM [20]?
**A.** 89%

**Q.** What about the activity at 10 µM ([21]; read-out: Activity (%), PI3 Kinase (p110a/p65a)(h)) of the same compound?
**A.** 97%

**Q.** What about the activity at 10 µM ([21]; read-out: Activity (%), PI3 Kinase (p110a/p85a)(h)) of the same compound?
**A.** 94%

**Q.** And the activity at 10 µM [22]?
**A.** 117%

**Q.** What about the activity at 10 µM [23] of the same compound?
**A.** 89%

**Q.** And the activity at 10 µM [24]?
**A.** 79%

**Q.** What about the activity at 10 µM [25] of the same compound?
**A.** 88%
